Measurements as given in US20040043937A1, “Peptide and peptide mimetic derivatives with integrin-inhibitors properties II” (priority 2000, published 2004).
Where no end group is shown, it is not given here.

Test system: mouse MC3T3 H1 osteoblast cultures
Experiment: Cell adhesion test: adhesion of osteoblast cultures in vitro to peptide-coated material surfaces
Type: cell-based
Conditions: 50 000 cells/cm^2 inoculated, incubation in serum-free medium at 37° C./95% atmospheric humidity for one hour
Procedure: Example for Cell Adhesion Test The adhesion of mouse MC3T3 H1 osteoblast cultures in vitro to peptide-coated material surfaces was investigated. In this test, 50 000 cells/cm^2 were inoculated and, after incubation in serum-free medium at 37° C./95% atmospheric humidity for one hour, the proportion of adhered cells was determined. Cell adhesion rate [%]=adhered cells/inoculated cells×100 The coating of culture surfaces made of polystyrene precoated with bovine serum albumin (BSA) with thiol peptides is disclosed in the prior art (see DE 198 18098 (Merck Patent GmbH), Ex. 2). The coating of PMMA surfaces with acrylate peptides is also described in DE 198 18098, Ex. 3.

Substance | cell adhesion rate [%] (adhered cells/inoculated cells×100)
Lys-Ile-Ala-Phe-Gln-Arg-Asn-Arg-Lys-Aca-Aca-Cys (KIAFQRNRK-{Aca-Aca-Cys}) [linear peptide with thiol (Cys) anchor] | 96%
Cys-Aca-Aca-Thr-Trp-Tyr-Lys-Ile-Ala ({Cys-Aca-Aca}-TWYKIA) [linear peptide with thiol (Cys) anchor] | 7%
Phe-Gln-Arg-Asn-Arg-Lys-Aca-Aca-Cys (FQRNRK-{Aca-Aca-Cys}) [linear peptide with thiol (Cys) anchor] | 13%
Gua-Mab-azaGly-Asp-Hda-εAhx-εAhx-Aca | 75%
Cys-Aca-Aca-Thr-Trp-Tyr-Lys-Ile-Ala-Phe-Gln-Arg-Asn-Arg-Lys ({Cys-Aca-Aca}-TWYKIAFQRNRK) [linear peptide with thiol (Cys) anchor] | 101%
Thr-Trp-Tyr-Lys-Ile-Ala-Phe-Gln-Arg-Asn-Arg-Lys-Aca-Aca-Cys (TWYKIAFQRNRK-{Aca-Aca-Cys}) [linear peptide with thiol (Cys) anchor] | 105%
Cys-Aca-Aca-Thr-Trp-Tyr-Lys-Ile-Ala-Phe-Gln-Arg ({Cys-Aca-Aca}-TWYKIAFQR) [linear peptide with thiol (Cys) anchor] | 17%
